Data published in publication PMC4131461, “Antiviral Action of Synthetic Stigmasterol Derivatives on Herpes Simplex Virus Replication in Nervous Cells In Vitro” (BioMed Research International, 2014).

Legend:
[1] = MTT cytotoxicity assay in Neuro-2a cells; assay type: cell-based, Murine; conditions: mouse, Neuro-2a cells (confluent nongrowing monolayers), 24 h incubation at 37°C
Description: (§1) Cell viability in the presence of different concentration of the compound was determined using the MTT assay. The absorbance of each well was measured on Eurogenetics MPR-A 4i microplate reader using a test wavelength of 570 nm and a reference wavelength of 630 nm. The CC50 was defined as the concentration of the compound that caused a 50% reduction in absorbance.
(§2) Fifty percent cytotoxic concentration (CC50) for PC-12, Neuro-2a, and SH-SY5Y cells was determined. Compounds 1 and 2 were added to confluent nongrowing cells in concentrations ranging from 1 to 144 μM and from 1 to 129 μM, respectively, and, after 24 h incubation at 37°C, a MTT colorimetric assay was performed.
(§3) Figure 2 Cytotoxic effect of compounds 1 and 2 in three nervous cell lines. (a) PC-12, (b) Neuro-2a, and (c) SH-SY5Y cells monolayers were incubated in the presence of different concentrations of compounds 1 and 2. After 24 h of incubation at 37°C cell viability was determined by the MTT assay. The CC50 was defined as the concentration of the compound that caused a 50% reduction in cell viability. Data are mean values from four separate experiments.

[2] = tested on: HSV-1 Cgal; experiment: HSV-1 Cgal propagation, in situ beta-gal staining; assay type: cell-based, herpes simplex virus type 1; conditions: PC-12, Neuro-2a, SH-SY5Y cells, m.o.i. 1, 10 μM of 1 / 5 μM of 2, 24 h
Description: (§4) Cells grown in coverslips inside 24-well plates were infected with HSV-1 Cgal. After adsorption, inocula were eliminated and cells were covered with MEM 1.5%. At 24 h after infection (p.i.), supernatants were harvested and stored at −70°C for titration, and cells were stained in situ for β-gal. Coverslips were mounted, observed with an Olympus BX61 microscope, and photographed.
We have previously reported that compounds 1 and 2 inhibit HSV-1 propagation in IOBA-NHC cells. To investigate the effect of both compounds on viral propagation, PC-12, Neuro-2a, and SH-SY5Y cells grown in coverslips inside 24-well plates were infected with HSV-1 Cgal (m.o.i. = 1) and, then, treated with control media, 10 μM of 1 and 5 μM of 2. After 24 h incubation at 37°C, cells were stained in situ for β-gal. […] Therefore, both compounds would prevent HSV-1 Cgal spreading in all nervous cell lines assayed when added after infection.
Figure 4 Effect of compounds 1 and 2 on HSV-1 propagation. (a) PC-12, (b) Neuro-2a, and (c) SH-SY5Y cells monolayers grown in coverslips inside 24-well plates were infected with HSV-1 Cgal and incubated for 1 h at 37°C. Then, cells were covered with DMEM/F12 2% or media containing 10 μM of compound 1 and 5 μM of compound 2. After incubation for 24 h, cells were stained in situ for β-gal. […]

[3] = tested on: HSV-1 Cgal; experiment: HSV-1 Cgal virus yield reduction in nervous cell lines (plaque assay); assay type: cell-based, herpes simplex virus type 1; conditions: regardless of the virus strain used (KOS wt or Cgal); PC-12, Neuro-2a, SH-SY5Y cells; 10 μM compound 1 / 5 μM compound 2, 24 h
Description: (§5) Cells grown in 24-well plates were infected with HSV-1 KOS and, after virus adsorption, treated or not with the compounds. After 24 h of incubation at 37°C, supernatants were collected and titrated in Vero cells. Briefly, Vero cells grown in 24-well plates were infected with serial 10-fold dilutions of viral yields and incubated for 1 h at 37°C. Residual inocula were replaced by maintenance medium with 0.7% of methylcellulose. After 72 h of incubation at 37°C, cells were fixed with formaldehyde 10% and stained with Crystal Violet, and plaque forming units were counted.
as §4
Figure 3 Effect of compounds 1 and 2 on HSV-1 virus yield reduction. (a) PC-12, (b) Neuro-2a, and (c) SH-SY5Y cells were infected with HSV-1 KOS (black bars) and HSV-1 Cgal (grey bars) and incubated for 1 h at 37°C. Then, cells were covered with DMEM/F12 2% or media containing 10 μM of compound 1 and 5 μM of compound 2. After 24 h supernatants were harvested and viral titres were determined by plaque assay. […]

[4] = MTT cytotoxicity assay in SH-SY5Y cells; assay type: cell-based; conditions: human, SH-SY5Y cells (confluent nongrowing monolayers), 24 h incubation at 37°C
Description: as §1, §2, §3

[5] = tested on: IL-6; set-up: method as in earlier work; conditions: HSV-1-infected epithelial cells (IOBA-NHC and HCLE); Michelini, personal communication; cited from earlier work
[6] = tested on: IFN-γ; experiment: IFN-gamma secretion in HSV-1-infected Neuro-2a cells (ELISA); assay type: cell-based, Murine; conditions: HSV-1 KOS-infected Neuro-2a cells, 10 μM compound 1 / 5 μM compound 2, 24 h; for IFN-γ levels: infected control 154.7 ± 7.2
Description: (§6) Neuro-2a cells grown in 24-well plates were infected with HSV-1 at a multiplicity of infection (m.o.i.) of 1. After 24 h of incubation at 37°C cells supernatants were harvested and cytokines were quantified. Murine IL-6 and IFN-gamma were quantified by commercial ELISA sets (BD OptEIATM, Becton Dickinson, USA) according to manufacturer instructions.
(§7) On the other hand, compound 2 increases IL-6 levels in human epithelial cells infected with HSV-1 [12]. […] For that purpose, we used those supernatants in which the antiviral effect of compounds 1 and 2 was found (Figure 3(b)). IL-6 and IFN-γ secretion reached 659.6 ± 14.8 pg/mL and 154.7 ± 7.2 pg/mL in HSV-1 infected control cells, respectively. […] IFN-γ levels dropped to 72.3 ± 4.9 pg/mL (P < 0.006) (53.3%) and to 53 ± 4.2 pg/mL (P < 0.001) (65.7%) with respect to untreated infected cells after treatment with 1 and 2. Thus, compounds 1 and 2 might display an anti-inflammatory activity in HSV-1-infected Neuro-2a cells.

[7] = tested on: TNF-α; set-up: method as in earlier work; conditions: compound 1: HSV-1-infected epithelial cells; compound 2: IOBA-NHC cells; Michelini, personal communication; cited from earlier work
[8] = tested on: IOBA-NHC cells; conditions: cited from earlier work
[9] = tested on: glucocorticoid receptors (GR); set-up: method as in Michelini, personal communication; conditions: ref Michelini, personal communication; cited from earlier work
[10] = tested on: IL-6; experiment: IL-6 secretion in HSV-1-infected Neuro-2a cells (ELISA); assay type: cell-based, Murine; conditions: HSV-1 KOS-infected Neuro-2a cells, 10 μM compound 1 / 5 μM compound 2, 24 h; for IL-6 levels, reduction: vs untreated infected cells; for IL-6 levels: infected control 659.6 ± 14.8
Description: as §6, §7

[11] = tested on: glucocorticoid receptors (GR); set-up: method as in Michelini, personal communication; conditions: ref Michelini, personal communication; cited from earlier work; remark: listed apart in the source
[12] = MTT cytotoxicity assay in PC-12 cells; assay type: cell-based; conditions: rat, PC-12 cells (confluent nongrowing monolayers), 24 h incubation at 37°C
Description: as §1, §2, §3

[13] = tested on: HSV-1 KOS wt strain; experiment: HSV-1 KOS wt virus yield reduction in nervous cell lines (plaque assay); assay type: cell-based, herpes simplex virus type 1; conditions: SH-SY5Y cells, m.o.i. 1, 5 μM compound 2, 24 h
Description: as §5
Neuro-2a, PC-12, and SH-SY5Y cells grown in 24-well plates were infected with HSV-1 KOS wt strain at m.o.i. of 1. After 24 h of incubation at 37°C, supernatants were collected and titrated in Vero cells.
Figure 3 Effect of compounds 1 and 2 on HSV-1 virus yield reduction. (a) PC-12, (b) Neuro-2a, and (c) SH-SY5Y cells were infected with HSV-1 KOS (black bars) and HSV-1 Cgal (grey bars) and incubated for 1 h at 37°C. Then, cells were covered with DMEM/F12 2% or media containing 10 μM of compound 1 and 5 μM of compound 2. After 24 h supernatants were harvested and viral titres were determined by plaque assay. Bars show average of two replicates ± SD. *P < 0.05, with respect to untreated infected cells.

CC[C@@H](C(C)C)[C@H](O)[C@@H](O)[C@@H](C)[C@H]1CC[C@H]2[C@@H]3CCC4=CC(=O)CC[C@]4(C)[C@H]3CC[C@]12C [Compound 1, (22S,23S)-22,23-dihydroxystigmast-4-en-3-one]
CC50 at 24 h [1]: 80.4 µM | HSV-1 Cgal propagation (β-gal stained cells) [2]: only scattered stained cells | reduction in viral yields [3]: 1-2 log | CC50 at 24 h [4]: 77.2 µM | effect on IL-6 levels [5]: does not reduce | IFN-γ levels, drop with respect to untreated infected cells [6]: 53.3% | IFN-γ levels [6]: 72.3 ± 4.9 pg/mL | effect on TNF-α levels [7]: does not reduce | CC50 [8]: 71.2 µM | induction of glucocorticoid activity via GR activation [9]: none of them was able to | IL-6 levels, reduction [10]: 46.2% | IL-6 levels [10]: 355.4 ± 10.9 pg/mL | binding to glucocorticoid receptors (GR) [11]: none of them was able to bind | CC50 at 24 h [12]: > 144 µM

CC[C@@H](C(C)C)[C@H](O)[C@@H](O)[C@@H](C)[C@H]1CC[C@H]2[C@@H]3CC(=O)[C@@]4(O)C[C@@H](Br)CC[C@]4(C)[C@H]3CC[C@]12C [Compound 2, (22S,23S)-3β-bromo-5α,22,23-trihydroxystigmastan-6-one]
CC50 at 24 h [1]: 65.2 µM | HSV-1 Cgal propagation (β-gal stained cells) [2]: only scattered stained cells | inhibition of HSV-1 yield [13]: ~2 logs | reduction in viral yields [3]: 1-2 log | CC50 at 24 h [4]: 70 µM | effect on IL-6 levels [5]: increases | IFN-γ levels, drop with respect to untreated infected cells [6]: 65.7% | IFN-γ levels [6]: 53 ± 4.2 pg/mL | effect on TNF-α levels [7]: inhibits | CC50 [8]: > 277 µM | induction of glucocorticoid activity via GR activation [9]: none of them was able to | IL-6 levels, reduction [10]: 41.1% | IL-6 levels [10]: 388.2 ± 11.4 pg/mL | binding to glucocorticoid receptors (GR) [11]: none of them was able to bind | CC50 at 24 h [12]: > 129 µM
